Structures can show the parent of a compound that is named as a salt.
Biological target: uremic plasma (Homo sapiens, UniProt P02768)
Test: Binding capacity of uremic plasma for IS at different NaCl concentrations
Assay type: in vitro ADME
Experimental: After having received approval from the competent institutional review board (ethics committee of the University Hospital Würzburg, code AZ 64/12), written informed consent was obtained from 15 end-stage renal disease patients on maintenance hemodialysis in a single dialysis center (Dialysis center, Elsenfeld, Germany). Blood (7.5 mL) was collected in EDTA-tubes from each patient before dialysis.

uremic plasma, sequence (P02768 25-609): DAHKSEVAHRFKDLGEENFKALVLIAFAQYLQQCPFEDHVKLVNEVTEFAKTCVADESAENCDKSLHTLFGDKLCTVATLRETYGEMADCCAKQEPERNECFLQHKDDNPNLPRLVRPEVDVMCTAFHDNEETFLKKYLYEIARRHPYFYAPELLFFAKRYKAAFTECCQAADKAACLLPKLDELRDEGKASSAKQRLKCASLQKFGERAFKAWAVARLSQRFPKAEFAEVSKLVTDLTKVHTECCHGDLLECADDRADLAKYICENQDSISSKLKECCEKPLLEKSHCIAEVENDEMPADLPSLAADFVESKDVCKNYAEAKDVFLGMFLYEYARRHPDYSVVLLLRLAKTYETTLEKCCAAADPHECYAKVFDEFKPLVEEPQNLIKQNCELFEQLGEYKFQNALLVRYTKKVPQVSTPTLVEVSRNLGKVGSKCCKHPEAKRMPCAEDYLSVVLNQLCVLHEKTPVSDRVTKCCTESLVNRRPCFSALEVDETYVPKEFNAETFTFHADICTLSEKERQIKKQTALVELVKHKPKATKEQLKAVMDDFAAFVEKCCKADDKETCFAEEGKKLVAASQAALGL

`Cc1ccc(OS(=O)(=O)O)cc1` [p-cresyl sulfate] was tested, and the protein bound fraction ([…] NaCl, uremic plasma 1:2 diluted, native toxin) was 91% ± 2% and the “total (native) toxin concentration in uremic plasma” value (plasma of hemodialysis patients before dialysis) was 90 ± 28 µM.

Source: article PMC3942743 (Toxins, 2014)
